“And” between values parts separate entries of the source, which are not always exact repeats. Identical values can stand only once.
Key:
[1] = molecular target: T1, Aspartate--tRNA(Asp/Asn) ligase (Mycobacterium tuberculosis (strain ATCC 25618 / H37Rv), UniProt P9WFW3); experiment: Assay for Asp RNA synthetase-1 from Mycobacterium tuberculosis; assay type: functional
T1 sequence (P9WFW3 whole entry): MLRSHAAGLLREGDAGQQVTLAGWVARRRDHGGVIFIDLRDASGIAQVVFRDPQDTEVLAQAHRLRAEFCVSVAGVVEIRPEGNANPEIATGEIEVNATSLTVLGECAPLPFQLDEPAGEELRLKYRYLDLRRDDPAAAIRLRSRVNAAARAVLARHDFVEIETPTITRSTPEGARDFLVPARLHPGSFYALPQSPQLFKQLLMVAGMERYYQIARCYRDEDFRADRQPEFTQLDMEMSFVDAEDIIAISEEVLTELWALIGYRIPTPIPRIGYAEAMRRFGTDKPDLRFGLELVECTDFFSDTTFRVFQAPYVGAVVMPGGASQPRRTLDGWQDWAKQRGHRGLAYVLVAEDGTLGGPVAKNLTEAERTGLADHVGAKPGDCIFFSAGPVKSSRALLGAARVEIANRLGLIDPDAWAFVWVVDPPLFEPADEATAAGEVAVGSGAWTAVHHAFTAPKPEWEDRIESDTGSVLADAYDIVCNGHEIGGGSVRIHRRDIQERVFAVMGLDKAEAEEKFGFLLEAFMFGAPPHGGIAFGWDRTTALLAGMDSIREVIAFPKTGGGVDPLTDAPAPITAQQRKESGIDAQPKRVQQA

Histidine--tRNA ligase [2] = molecular target: T2, Histidine--tRNA ligase (Trypanosoma cruzi (strain CL Brener), UniProt Q4DA54); experiment: Trypanosoma cruzi histidyl tRNA synthetase (Tc-HisRS); assay type: functional
T2 sequence (Q4DA54 whole entry): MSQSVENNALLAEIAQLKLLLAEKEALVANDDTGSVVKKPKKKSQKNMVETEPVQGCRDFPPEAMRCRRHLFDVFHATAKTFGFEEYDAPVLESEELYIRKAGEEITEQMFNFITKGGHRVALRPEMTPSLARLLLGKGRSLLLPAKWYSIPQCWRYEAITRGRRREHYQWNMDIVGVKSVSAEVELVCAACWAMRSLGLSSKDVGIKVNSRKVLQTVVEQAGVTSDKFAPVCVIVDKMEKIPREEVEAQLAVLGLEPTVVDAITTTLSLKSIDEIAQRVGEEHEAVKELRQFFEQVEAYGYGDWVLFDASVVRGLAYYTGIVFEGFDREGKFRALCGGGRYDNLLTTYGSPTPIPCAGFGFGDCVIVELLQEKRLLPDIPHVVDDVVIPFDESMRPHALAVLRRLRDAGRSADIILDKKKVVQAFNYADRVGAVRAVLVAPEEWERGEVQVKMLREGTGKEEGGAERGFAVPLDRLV

[3] = molecular target: T3, Ubiquitin-activating enzyme e1, putative (Leishmania donovani (strain BPK282A1), UniProt E9BSI1); experiment: Leishmania donovani Ubiquitin Activating Enzyme (LdE1); assay type: functional
T3 sequence (E9BSI1 whole entry): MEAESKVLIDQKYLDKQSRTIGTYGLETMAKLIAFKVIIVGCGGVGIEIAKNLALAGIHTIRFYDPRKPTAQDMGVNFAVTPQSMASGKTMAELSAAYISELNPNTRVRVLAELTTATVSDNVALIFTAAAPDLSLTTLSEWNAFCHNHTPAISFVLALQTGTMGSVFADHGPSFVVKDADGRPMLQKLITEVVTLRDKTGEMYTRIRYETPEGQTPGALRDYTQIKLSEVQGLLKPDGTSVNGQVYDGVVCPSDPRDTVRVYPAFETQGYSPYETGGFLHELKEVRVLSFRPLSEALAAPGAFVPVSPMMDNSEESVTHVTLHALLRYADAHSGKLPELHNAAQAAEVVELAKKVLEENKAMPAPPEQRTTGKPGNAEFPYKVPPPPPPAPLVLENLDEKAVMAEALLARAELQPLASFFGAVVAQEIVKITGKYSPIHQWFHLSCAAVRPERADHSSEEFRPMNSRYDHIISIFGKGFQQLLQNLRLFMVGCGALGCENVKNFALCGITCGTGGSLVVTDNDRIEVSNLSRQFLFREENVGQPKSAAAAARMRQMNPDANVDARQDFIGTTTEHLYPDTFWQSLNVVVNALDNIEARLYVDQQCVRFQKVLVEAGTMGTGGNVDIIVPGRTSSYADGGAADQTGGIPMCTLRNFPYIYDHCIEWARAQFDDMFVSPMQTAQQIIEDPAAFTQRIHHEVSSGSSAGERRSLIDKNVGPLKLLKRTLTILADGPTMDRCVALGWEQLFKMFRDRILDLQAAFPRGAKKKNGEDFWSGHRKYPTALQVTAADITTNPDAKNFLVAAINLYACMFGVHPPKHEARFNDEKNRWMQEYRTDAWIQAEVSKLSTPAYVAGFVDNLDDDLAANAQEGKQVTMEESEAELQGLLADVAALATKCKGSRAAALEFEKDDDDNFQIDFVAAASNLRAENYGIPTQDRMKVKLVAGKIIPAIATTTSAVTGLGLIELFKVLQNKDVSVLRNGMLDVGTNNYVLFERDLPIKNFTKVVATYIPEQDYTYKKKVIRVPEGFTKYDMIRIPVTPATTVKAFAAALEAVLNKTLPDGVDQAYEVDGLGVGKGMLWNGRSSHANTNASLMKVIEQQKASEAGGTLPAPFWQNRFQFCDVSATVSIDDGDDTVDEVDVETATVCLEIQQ

Lysine--tRNA ligase = Lysine--tRNA ligase (Plasmodium falciparum (isolate 3D7), UniProt Q8IDJ8); experiment: Pf-KRS-1 (Lysyl-RNA Synthetase-1, KRS-1, cytosolic KRS) from Plasmodium falciparum. Inhibitor assay, 384 well plate, luminescence read.; assay type: functional
Histidine--tRNA ligase [4] = molecular target: T4, Histidine--tRNA ligase (Leishmania infantum, UniProt A4I591); experiment: Leishmania infantum Histidine tRNA synthetase (LdHisRS); assay type: functional
T4 sequence (A4I591 whole entry): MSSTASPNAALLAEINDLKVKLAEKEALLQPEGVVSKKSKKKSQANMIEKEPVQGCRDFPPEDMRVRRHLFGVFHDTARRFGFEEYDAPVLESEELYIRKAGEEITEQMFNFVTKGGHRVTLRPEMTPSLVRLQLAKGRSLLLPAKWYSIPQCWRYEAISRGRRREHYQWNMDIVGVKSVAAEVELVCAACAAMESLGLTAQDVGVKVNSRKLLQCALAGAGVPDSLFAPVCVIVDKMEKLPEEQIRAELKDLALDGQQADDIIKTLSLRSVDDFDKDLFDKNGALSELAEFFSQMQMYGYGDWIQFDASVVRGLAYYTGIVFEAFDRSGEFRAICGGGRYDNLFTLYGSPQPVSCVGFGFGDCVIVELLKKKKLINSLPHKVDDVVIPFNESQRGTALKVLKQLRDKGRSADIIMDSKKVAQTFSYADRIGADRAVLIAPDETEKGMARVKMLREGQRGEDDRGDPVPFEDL

[5] = microbe, parasite or virus in culture; conditions: Mycobacterium tuberculosis, 72 h, read-out: pIC50 (converted)
[6] = microbe, parasite or virus in culture; conditions: Mycobacterium tuberculosis, 96 h, read-out: pIC50 (converted)
[7] = molecular target: Protein translocase subunit SecA (Escherichia coli (strain K12), UniProt P10408); experiment: Assay to Identify E. coli SecA ATPase Inhibitors; assay type: functional
[8] = molecular target: T5, Coenzyme A biosynthesis bifunctional protein CoaBC (Mycobacterium tuberculosis (strain ATCC 25618 / H37Rv), UniProt P9WNZ1); experiment: Biomol Green assay for MtCoaBC inhibitor, OD650 read; assay type: functional
T5 sequence (P9WNZ1 whole entry): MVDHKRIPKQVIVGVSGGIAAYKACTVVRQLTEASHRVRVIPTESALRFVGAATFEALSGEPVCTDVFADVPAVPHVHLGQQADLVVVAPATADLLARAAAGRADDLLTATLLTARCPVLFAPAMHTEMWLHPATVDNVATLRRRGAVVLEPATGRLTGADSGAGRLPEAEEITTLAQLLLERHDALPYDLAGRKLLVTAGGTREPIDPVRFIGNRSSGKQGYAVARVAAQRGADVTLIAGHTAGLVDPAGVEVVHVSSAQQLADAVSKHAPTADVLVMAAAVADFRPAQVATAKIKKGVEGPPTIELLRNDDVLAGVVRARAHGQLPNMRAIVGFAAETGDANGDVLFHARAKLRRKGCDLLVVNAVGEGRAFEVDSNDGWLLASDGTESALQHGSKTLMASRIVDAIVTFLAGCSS

[9] = To identify inhibition of the IFN signalling (Jak-Stat) pathway via expression of an eGFP reporter gene under the control of an IFN-stimulated response element (ISRE) containing MxA promoter.; assay type: functional, Homo sapiens
Tryptophan--tRNA ligase = Tryptophan--tRNA ligase (Mycobacterium tuberculosis (strain ATCC 25618 / H37Rv), UniProt P9WFT3); experiment: Biochemical assay for Mt-TrpRS; assay type: functional
Schistosoma mansoni = experiment: High throughput screening of compounds against Schistosoma mansoni motility; assay type: functional; parameters: dose or concentration left out as unconfirmed

Lysine--tRNA ligase, sequence (Q8IDJ8 whole entry): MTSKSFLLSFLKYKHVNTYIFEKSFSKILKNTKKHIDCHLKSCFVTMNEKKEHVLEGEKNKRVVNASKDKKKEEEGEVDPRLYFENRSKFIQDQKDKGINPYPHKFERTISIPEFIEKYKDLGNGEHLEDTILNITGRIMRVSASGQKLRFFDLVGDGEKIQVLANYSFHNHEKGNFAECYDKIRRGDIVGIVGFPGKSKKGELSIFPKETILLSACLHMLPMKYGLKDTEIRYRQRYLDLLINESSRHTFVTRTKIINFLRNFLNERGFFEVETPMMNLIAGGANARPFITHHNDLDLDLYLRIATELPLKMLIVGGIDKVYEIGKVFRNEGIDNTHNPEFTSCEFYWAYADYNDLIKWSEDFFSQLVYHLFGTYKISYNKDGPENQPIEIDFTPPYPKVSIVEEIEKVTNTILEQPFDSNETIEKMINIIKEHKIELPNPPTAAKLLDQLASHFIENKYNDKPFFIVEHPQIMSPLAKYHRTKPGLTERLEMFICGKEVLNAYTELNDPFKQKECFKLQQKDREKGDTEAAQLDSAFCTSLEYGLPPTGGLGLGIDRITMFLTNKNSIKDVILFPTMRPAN
Protein translocase subunit SecA, sequence (P10408 whole entry): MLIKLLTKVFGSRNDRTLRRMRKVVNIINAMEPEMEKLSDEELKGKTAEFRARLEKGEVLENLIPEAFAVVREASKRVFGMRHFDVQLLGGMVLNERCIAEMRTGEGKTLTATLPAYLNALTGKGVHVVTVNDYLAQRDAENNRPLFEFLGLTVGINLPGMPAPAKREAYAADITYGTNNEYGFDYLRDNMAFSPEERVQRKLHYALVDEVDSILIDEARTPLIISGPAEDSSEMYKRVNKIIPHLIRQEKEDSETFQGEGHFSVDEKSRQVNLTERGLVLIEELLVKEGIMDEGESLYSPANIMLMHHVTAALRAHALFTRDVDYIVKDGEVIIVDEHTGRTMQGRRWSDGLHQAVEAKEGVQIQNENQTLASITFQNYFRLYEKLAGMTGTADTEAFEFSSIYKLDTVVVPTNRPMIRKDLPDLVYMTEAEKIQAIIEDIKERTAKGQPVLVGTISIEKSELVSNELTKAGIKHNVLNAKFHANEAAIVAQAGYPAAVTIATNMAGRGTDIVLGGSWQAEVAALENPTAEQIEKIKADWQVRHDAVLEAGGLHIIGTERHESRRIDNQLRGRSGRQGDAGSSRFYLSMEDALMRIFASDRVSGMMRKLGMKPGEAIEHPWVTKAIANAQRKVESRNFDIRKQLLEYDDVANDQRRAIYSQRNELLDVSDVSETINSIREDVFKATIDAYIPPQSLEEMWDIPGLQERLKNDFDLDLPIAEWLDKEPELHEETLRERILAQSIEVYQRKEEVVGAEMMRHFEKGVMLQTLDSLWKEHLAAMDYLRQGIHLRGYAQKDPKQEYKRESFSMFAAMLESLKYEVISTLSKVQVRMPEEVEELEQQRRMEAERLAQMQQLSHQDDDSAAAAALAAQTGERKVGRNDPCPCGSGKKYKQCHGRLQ
Tryptophan--tRNA ligase, sequence (P9WFT3 whole entry): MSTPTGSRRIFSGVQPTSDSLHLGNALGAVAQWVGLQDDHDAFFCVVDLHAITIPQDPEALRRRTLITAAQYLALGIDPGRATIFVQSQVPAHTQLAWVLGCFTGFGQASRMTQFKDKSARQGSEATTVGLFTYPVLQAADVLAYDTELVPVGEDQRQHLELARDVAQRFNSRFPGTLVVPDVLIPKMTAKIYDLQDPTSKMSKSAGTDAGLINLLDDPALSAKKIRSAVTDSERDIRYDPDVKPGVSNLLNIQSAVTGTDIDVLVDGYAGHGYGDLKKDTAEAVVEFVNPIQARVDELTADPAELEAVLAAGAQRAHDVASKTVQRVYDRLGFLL

## Cn1cc(NC(=O)N2CCC(c3ccccc3)CC2)ccc1=O
[1]
  IC50: 13.6 µM and 15.7 µM
Histidine--tRNA ligase [2]
  IC50: 63 µM and 58.7 µM
[3]
  IC50: > 100 µM
Lysine--tRNA ligase
  IC50: > 50.1 µM
Histidine--tRNA ligase [4]
  IC50: 2.98 µM and 3.9 µM

## COc1cccc(C2CC(=O)Nc3nc(N)sc32)c1OC (configuration not stated)
[1]
  IC50: 2.74 µM and 8.57 µM
[5]
  IC50: 42.2 µM
[6]
  IC50: 44.8 µM
Histidine--tRNA ligase [2]
  IC50: 3.98 µM and 3.84 µM
[3]
  IC50: 45.3 µM and 45 µM
Lysine--tRNA ligase
  IC50: > 50.1 µM
[7]
  IC50: 9.52 µM and 9.23 µM
Histidine--tRNA ligase [4]
  IC50: 1.21 µM and 1.37 µM

## Cn1nc2c(cc1=O)CN(Cc1coc(-c3cccs3)n1)CC2
[1]
  IC50: 51.7 µM and 65.4 µM
[3]
  IC50: > 100 µM
Histidine--tRNA ligase [4]
  IC50: 13.1 µM and 11.1 µM

## CCC(C)CNc1ccc2oc(COC)nc2c1 (configuration not stated)
[1]
  IC50: 36.7 µM and 47.3 µM
[5]
  IC50: 49.1 µM
[6]
  IC50: 34.4 µM
[3]
  IC50: > 100 µM
Lysine--tRNA ligase
  IC50: > 50.1 µM
Histidine--tRNA ligase [4]
  IC50: 11.1 µM and 14.1 µM

## COCc1nc2cc(NCc3ccncc3)ccc2o1
[1]
  IC50: 11.6 µM and 26.4 µM
[8]
  IC50: > 50.1 µM
[3]
  IC50: 50.3 µM and 60.4 µM
Histidine--tRNA ligase [4]
  IC50: 4.22 µM and 3.13 µM

## Cn1cc(NS(=O)(=O)c2ccc(OC(F)(F)F)cc2)ccc1=O
[1]
  IC50: 98.4 µM and 74.5 µM
[9]
  pIC50: 5.067 and 4.969
Lysine--tRNA ligase
  IC50: > 50.1 µM
Histidine--tRNA ligase [4]
  IC50: 25.5 µM and 16.7 µM

## CNc1nc2c(s1)C(c1c(F)cccc1Cl)CC(=O)N2 (configuration not stated)
[1]
  IC50: 46.5 µM and 15.4 µM
Histidine--tRNA ligase [2]
  IC50: 20.4 µM and 19.2 µM
Lysine--tRNA ligase
  IC50: > 50.1 µM
[7]
  IC50: 20.4 µM and 24.2 µM
Histidine--tRNA ligase [4]
  IC50: 7.84 µM and 5.67 µM

## CCCN(C(=O)c1ccccn1)c1nc2c(s1)CCc1c-2cnn1C
[1]
  IC50: 27.3 µM and 35.3 µM
[3]
  IC50: > 100 µM
Lysine--tRNA ligase
  IC50: > 50.1 µM
Histidine--tRNA ligase [4]
  IC50: 18.7 µM and 14.4 µM

## Cc1cc(CN2CCc3nn(C)c(=O)cc3C2)on1
[1]
  IC50: > 100 µM
Tryptophan--tRNA ligase
  IC50: > 195 µM
Schistosoma mansoni
  Percent Effect: -21.81%
Lysine--tRNA ligase
  IC50: > 50.1 µM
Histidine--tRNA ligase [4]
  IC50: 35.6 µM and 40.1 µM

## Cn1nc2c(cc1=O)CN(Cc1nnc(C3CC3)o1)CC2
[1]
  IC50: 77.5 µM and > 100 µM
[8]
  IC50: > 30.2 µM
[3]
  IC50: > 100 µM
Lysine--tRNA ligase
  IC50: > 50.1 µM
Histidine--tRNA ligase [4]
  IC50: 17.5 µM and 14.6 µM

## Cc1ccc(-c2nc(CN3CCc4nn(C)c(=O)cc4C3)co2)cc1
[1]
  IC50: > 100 µM and 52.7 µM
[3]
  IC50: > 100 µM
Histidine--tRNA ligase [4]
  IC50: 14.2 µM and 25.1 µM

Reference: ChEMBL document CHEMBL3988442, “University of Dundee, Small-Polar-MMV Screening Library” (2021)
